# Assay results published in patent publication US20260092054A1, “FUSED RING COMPOUND AND PHARMACEUTICAL CONTAINING SAME” (KAKEN PHARMACEUTICAL CO., LTD., priority 2022, published 2026).
# pIC50: −log10 of the molar value.
# Tests used:
# human STAT6 = assay: Human STAT6 dependent reporter activity (IL-4 stimulated STAT6 reporter assay using STAT6-HEK293 cells); assay type: cell-based; conditions: IL-4 stimulation, luciferase activity; for inhibition at 0.1 µM / inhibition at 1 µM: Homo sapiens, read-out: Inhibition rate (%); for inhibition at 1 µM: compound 1 μmol/L
# human STAT6/pIL-4Rα = biological target: T1, human STAT6/pIL-4Rα (Homo sapiens, UniProt P42226); assay: Binding inhibitory activity between human STAT6/pIL-4Rα by fluorescence polarization method; conditions: rhSTAT6 (123-658) / FAM-pIL-4Rα peptide
# T1 construct: histidine tag
# T1 sequence (P42226 123-658): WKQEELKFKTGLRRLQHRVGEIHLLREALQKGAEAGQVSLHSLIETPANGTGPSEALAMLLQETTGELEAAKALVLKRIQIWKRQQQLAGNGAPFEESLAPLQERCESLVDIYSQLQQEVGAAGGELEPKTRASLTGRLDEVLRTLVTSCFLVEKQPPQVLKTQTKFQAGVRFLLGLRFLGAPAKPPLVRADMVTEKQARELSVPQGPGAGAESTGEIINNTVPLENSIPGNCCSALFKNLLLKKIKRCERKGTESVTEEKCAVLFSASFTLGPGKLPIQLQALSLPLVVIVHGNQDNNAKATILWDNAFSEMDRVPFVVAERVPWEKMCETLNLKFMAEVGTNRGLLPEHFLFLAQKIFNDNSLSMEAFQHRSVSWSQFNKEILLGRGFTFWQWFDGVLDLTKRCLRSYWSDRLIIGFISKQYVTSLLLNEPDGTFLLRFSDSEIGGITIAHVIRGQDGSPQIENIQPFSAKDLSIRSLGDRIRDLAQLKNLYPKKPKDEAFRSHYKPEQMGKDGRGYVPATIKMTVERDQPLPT
# Outline: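 His-tagged human STAT6 (residues 123–658, E. coli-expressed) was preincubated with compound for 30 min at RT in the dark, in buffer e.g. 50 mM NaCl, 10 mM HEPES pH 7.0, 1 mM DTT, 1 mM EDTA, 0.01% NP-40. FAM-pIL-4Rα peptide was then added for 30 min. Fluorescence polarisation was read at 485/535 nm, with IC50 interpolated linearly between two points flanking 50%.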
SMILES,inhibition at 0.1 µM (human STAT6; compound 0.1 μmol/L) [%],inhibition at 1 µM (human STAT6) [%],pIC50 (human STAT6/pIL-4Rα),Inhibition rate (%) (human STAT6; compound 0.1 μmol/L)
COCCn1c(-c2ccc(-n3c(C)nn(C)c3=O)cc2)cc2cc(C(F)(F)F)cc(C(=O)Nc3cccc(C(N)=O)n3)c21 [Ex. 171],29,95,6.48,
CCn1c(-c2ccc(C(=O)N(C)C)cc2)cc2cc(C(F)(F)F)cc(C(=O)Nc3ccc(F)c(C(N)=O)c3)c21 [Ex. 153],25,93,6.03,
CCn1c(-c2ccc(-n3ncn(C)c3=O)cc2)cc2cc(C(F)(F)F)cc(C(=O)Nc3cccc(C(N)=O)c3F)c21 [Ex. 47],43,95,6.00,
CCn1c(-c2ccc(N3C(=O)C(C)CC3C)cc2)cc2ccnc(C(=O)Nc3cccc(C(N)=O)c3)c21 (stereo not shown) [Ex. 131],56,92,6.29,
CCn1c(-c2ccc(-n3c(C)nn(C)c3=O)cc2)cc2ccnc(C(=O)Nc3ccc(F)c(C(=O)Nc4cn(C)c(=O)n(C)c4=O)c3)c21 [Ex. 191],63,,6.54,
CCn1c(-c2ccc(N3C(=O)C(C)CC3C)cc2)cc2ccnc(C(=O)Nc3ccc(F)c(C(=O)NCC#N)c3)c21 (stereo not shown) [Ex. 147],48,91,6.11,
CCn1c(-c2ccc(N3C(=O)C(C)CC3C)cc2)cc2cc(C(F)(F)F)cc(C(=O)Nc3cccc(C(N)=O)c3)c21 (stereo not shown) [Ex. 159],50,95,6.28,
CCn1c(-c2ccc(-n3c(C)nn(C)c3=O)cc2)cc2c(Cl)ccc(C(=O)Nc3ccc(F)c(C(N)=O)c3)c21 [Ex. 68],59,100,6.46,
COCCn1c(-c2ccc(-n3c(C)nn(C)c3=O)cc2)cc2cc(C(F)(F)F)cc(C(=O)Nc3ccc4c(c3)C(=O)NCC4)c21 [Ex. 62],59,99,6.35,
COCCn1c(-c2ccc(-n3c(C)nn(C)c3=O)cc2)cc2cc(C(F)(F)F)cc(C(=O)Nc3cccc(C(=O)Nc4cc[nH]n4)c3)c21 [Ex. 163],60,99,6.57,
CCn1c(-c2ccc(-n3cnn(C)c3=O)cc2)cc2cc(C(F)(F)F)cc(C(=O)Nc3ccc(F)c(C(N)=O)c3)c21 [Ex. 38],,100,6.48,99
CCn1c(-c2ccc(N3C(=O)C(C)CC3C)cc2)nc2cc(C(F)(F)F)cc(C(=O)Nc3cccc(C(N)=O)c3F)c21 (stereo not shown) [Ex. 218],38,89,6.17,
Cc1nn(C)c(=O)n1-c1ccc(-c2cc3ccnc(C(=O)Nc4cccc(C(N)=O)c4F)c3n2CCOCC(F)(F)F)cc1 [Ex. 113],44,96,6.36,
CCn1c(-c2ccc(N3CCCC3=O)cc2)nc2cc(Br)cc(C(=O)Nc3cccc(C(N)=O)c3)c21 [Ex. 4],12,64,6.13,
CCn1c(-c2ccc(-n3c(C)nn(C)c3=O)cc2)cc2cc(Cl)cc(C(=O)Nc3ccc(F)c(C(N)=O)c3)c21 [Ex. 56],94,100,6.57,
CNC(=O)c1cc(NC(=O)c2cc(C(F)(F)F)cc3cc(-c4ccc(-n5c(C)nn(C)c5=O)cc4)n(CCOC)c23)ccc1F [Ex. 51],13,82,6.31,
Cc1nn(C)c(=O)n1-c1ccc(-c2cc3ccnc(C(=O)Nc4cccc(C(N)=O)c4F)c3n2CCC(F)F)cc1 [Ex. 112],38,93,6.40,
Cc1nn(C)c(=O)n1-c1ccc(-c2cc3cc(C(F)(F)F)nc(C(=O)Nc4cccc(C(N)=O)c4)c3n2C)cc1 [Ex. 93],67,96,6.55,
COCCn1c(-c2ccc(-n3c(C)nn(C)c3=O)cc2)cc2cc(C(F)(F)F)cc(C(=O)Nc3cccc(C(=O)Nc4ccn(CC#N)n4)c3)c21 [Ex. 183],86,,6.64,
